From US11976083B2, “Inhibitors of peptidylarginine deiminases” (Gilead Sciences, Inc., priority 2020, dated 2024)

biological target: T1, human PAD4 (Homo sapiens, UniProt Q9UM07); assay: In vitro PAD4 BAEE biochemical assay; details: BAEE substrate 3 mM, 5 nM PAD4, 2 mM calcium chloride; geometric mean of multiple experiments
T1 construct: human PAD4 (NM_012387), A2-P663, was PCR amplified; His-SUMO (N, cleaved yes); made in house; host or cells: E. coli BL21(DE3)
Procedure, shortened: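 Assay was run at 25 °C using 3 mM BAEE and 5 nM human PAD4 after a 30 min compound preincubation; ammonia produced over 2 h was quantified by OPA-derived fluorescence. Full inhibition was defined by 50 µM BB-Cl-Amidine, and IC50 came from variable-slope nonlinear regression.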

T1 sequence (Q9UM07 2-663): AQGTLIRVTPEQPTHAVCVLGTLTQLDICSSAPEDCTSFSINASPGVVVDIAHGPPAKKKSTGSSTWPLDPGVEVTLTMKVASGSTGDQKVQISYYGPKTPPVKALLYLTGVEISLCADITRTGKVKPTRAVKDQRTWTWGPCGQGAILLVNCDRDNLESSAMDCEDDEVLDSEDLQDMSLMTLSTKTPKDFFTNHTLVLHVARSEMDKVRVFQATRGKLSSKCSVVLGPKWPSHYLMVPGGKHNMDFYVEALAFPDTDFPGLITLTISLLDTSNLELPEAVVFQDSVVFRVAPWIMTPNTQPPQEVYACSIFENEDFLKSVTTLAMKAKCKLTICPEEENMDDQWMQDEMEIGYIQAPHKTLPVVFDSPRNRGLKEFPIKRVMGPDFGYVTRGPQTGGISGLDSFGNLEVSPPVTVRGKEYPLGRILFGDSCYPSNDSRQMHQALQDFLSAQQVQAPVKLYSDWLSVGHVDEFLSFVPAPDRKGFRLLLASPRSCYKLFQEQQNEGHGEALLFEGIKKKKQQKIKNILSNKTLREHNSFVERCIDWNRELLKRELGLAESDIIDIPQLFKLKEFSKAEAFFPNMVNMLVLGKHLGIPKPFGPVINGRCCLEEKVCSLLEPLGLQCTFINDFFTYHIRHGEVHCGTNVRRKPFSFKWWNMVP

`C[C@H]1NC(=O)[C@@H]2[C@@H](CCCC(F)(F)Cn3c(-c4nc5cc(C(=O)N[C@H]6CNCC[C@@H]6F)c(F)cc5n4C)cc4ccc1nc43)C2(F)F` [Example 377, 6-fluoro-~{N}-[(3~{S},4~{S})-4-fluoro-3-piperidyl]-1-methyl-2-[(2~{R},5~{S},7~{R})-6,6,11,11-tetrafluoro-2-methyl-4-oxo-3,13,19-triazatetracyclo[11.5.2.0^{5,7}.0^{16,20}]icosa-1(19),14,16(20),17-tetraen-14-yl]benzimidazole-5-carboxamide] and `C[C@H]1NC(=O)[C@H]2[C@H](CCCC(F)(F)Cn3c(-c4nc5cc(C(=O)N[C@H]6CNCC[C@@H]6F)c(F)cc5n4C)cc4ccc1nc43)C2(F)F` [Example 378, 6-fluoro-~{N}-[(3~{S},4~{S})-4-fluoro-3-piperidyl]-1-methyl-2-[(2~{R},5~{R},7~{S})-6,6,11,11-tetrafluoro-2-methyl-4-oxo-3,13,19-triazatetracyclo[11.5.2.0^{5,7}.0^{16,20}]icosa-1(19),14,16(20),17-tetraen-14-yl]benzimidazole-5-carboxamide] are within 1.5-fold of each other in IC50: 32 nM for the first, 41 nM for the second.

Compared with `C[C@H]1NC(=O)[C@H]2C[C@@H]2CC[C@@H]2C[C@@H]2Cn2c(-c3nc4cc(C(=O)N[C@H]5CNCC[C@@H]5F)c(F)cc4n3C)cc3ccc1nc32` [Example 379, 6-fluoro-~{N}-[(3~{S),4~{S})-4-fluoro-3-piperidyl]-1-methyl-2-[(3~{S},5~{R},8~{S},10~{S},13~{R})-13-methyl-11-oxo-1,12,21-triazapentacyclo[12.5.2.0^{3,5}.0^{8,10}.0^ {17,20}]henicosa-14(21),15,17(20),18-tetraen-19-yl]benzimidazole-5-carboxamide], `C[C@H]1NC(=O)[C@@H]2C[C@H]2CC[C@@H]2[C@H](Cn3c(-c4nc5cc(C(=O)N[C@H]6CNCC[C@@H]6F)c(F)cc5n4C)cc4ccc1nc43)C2(F)F` [Example 386, 2-[(3~{R},5~{R},8~{R},10~{R},13~{R})-4,4-difluoro-13-methyl-11-oxo-1,12,21-triazapentacyclo[12.5.2.0^{3,5}.0^{8,10}.0^ {17,20}]henicosa-14(21),15,17(20),18-tetraen-19-yl]-6-fluoro-~{N}-[(3~{S},4~{S})-4-fluoro-3-piperidyl]-1-methyl-benzimidazole-5-carboxamide] is 85-fold lower in IC50: 2040 nM for the first, 24 nM for the second. The second is the more potent here.

Going from `COc1cc(C(=O)N[C@H]2CNCC[C@@H]2C(F)(F)F)cc2nc(-c3cc4ccc5nc4n3CCCCCCC(C)(C)C(=O)N[C@@H]5C)n(C)c12` [Example 380, 7-methoxy-1-methyl-~{N}-[(3~{R},4~{S})-4-(trifluoromethyl)-3-piperidyl]-2-[(11~{R})-8,8,11-trimethyl-9-oxo-1,10,19-triazatricyclo[10.5.2.0^{15,18}]nonadeca-12(19),13,15(18),16-tetraen-17-yl]benzimidazole-5-carboxamide] to `C[C@H]1NC(=O)[C@H]2[C@H](CCCCCn3c(-c4nc5cc(C(=O)N[C@H]6CNCC[C@@H]6F)c(F)cc5n4C)cc4ccc1nc43)C2(F)F` [Example 383, 2-[(2˜{R},5˜{R},7˜{S})-6,6-difluoro-2-methyl-4-oxo-3,13,19-triazatetracyclo[11.5.2.0^{5,7}.0^{16,20}]icosa-1(19),14,16(20),17-tetraen-14-yl]-6-fluoro-˜{N}-[(3˜{S},4˜{S})-4-fluoro-3-piperidyl]-1-methyl-benzimidazole-5-carboxamide], the IC50 falls from 1270 nM to 28 nM (45-fold).

Going from `C[C@H]1NC(=O)c2c(cccc2C(F)F)CCCCCn2c(-c3nc4cc(C(=O)N[C@H]5CNCC[C@@H]5F)c(F)cc4n3C)cc3ccc1nc32` [Example 384, 2-[(2~{R})-6-(difluoromethyl)-2-methyl-4-oxo-3,16,22-triazatetracyclo[14.5.2.0^{5,10}.0^{19,23}]tricosa-1(22),5(10),6,8,17,19(23),20-heptaen-17-yl]-6-fluoro-~{N}-[(3~{S},4~{S})-4-fluoro-3-piperidyl]-1-methyl-benzimidazole-5-carboxamide] to `Cc1nccc2c1C(=O)N[C@H](C)c1ccc3cc(-c4nc5cc(C(=O)N[C@H]6CNCC[C@@H]6F)c(F)cc5n4C4CC4)n(c3n1)CCCCC2` [Example 396, 1-cyclopropyl-2-[(2~{R})-2,6-dimethyl-4-oxo-3,7,16,22-tetrazatetracyclo[14.5.2.0^{5,10}.0^{19,23}]tricosa-1(22),5(10),6,8,17,19(23),20-heptaen-17-yl]-6-fluoro-~{N}-[(3~{S},4~{S})-4-fluoro-3-piperidyl]benzimidazole-5-carboxamide], the IC50 falls from 62 nM to 17 nM (3.6-fold). The second is the more potent here.

Going from `C[C@H]1NC(=O)[C@]2(F)C[C@H]2CCCCCn2c(-c3nc4cc(C(=O)N[C@H]5CNCC[C@@H]5F)c(F)cc4n3C3CC3)cc3ccc1nc32` [Example 387, 1-cyclopropyl-6-fluoro-2-[(2~{R},5~{S},7~{R})-5-fluoro-2-methyl-4-oxo-3,13,19-triazatetracyclo[11.5.2.0^{5,7}.0^{16,20}]icosa-1(19),14,16(20),17-tetraen-14-yl]-~ {N}-[(3~{S},4~{S})-4-fluoro-3-piperidyl]benzimidazole-5-carboxamide] to `C[C@H]1NC(=O)[C@@H]2C[C@@]2(F)CCCCCn2c(-c3nc4cc(C(=O)N[C@H]5CNCC[C@@H]5F)c(F)cc4n3C3CC3)cc3ccc1nc32` [Example 388], the IC50 falls from 25 nM to 12 nM (2.1-fold).

First: C[C@H]1NC(=O)[C@H]2[C@@H](CCCC(F)(F)Cn3c(-c4nc5cc(C(=O)N[C@H]6CNCC[C@@H]6F)c(F)cc5n4C4CC4)cc4ccc1nc43)C2(F)F [Example 389, 1-cyclopropyl-6-fluoro-~{N}-[(3~{S},4~{S})-4-fluoro-3-piperidyl]-2-[(2~{R},5~{R},7~{R})-6,6,11,11-tetrafluoro-2-methyl-4-oxo-3,13,19-triazatetracyclo[11.5.2.0^{5,7}.0^{16,20}]icosa-1(19),14,16(20),17-tetraen-14-yl]benzimidazole-5-carboxamide]
Second: C[C@H]1NC(=O)[C@@H]2[C@@H](CCCC(F)(F)Cn3c(-c4nc5cc(C(=O)N[C@H]6CNCC[C@@H]6F)c(F)cc5n4C4CC4)cc4ccc1nc43)C2(F)F [Example 390, 1-cyclopropyl-6-fluoro-~{N}-[(3~{S},4~{S})-4-fluoro-3-piperidyl]-2-[(2~{R},5~{S},7~{R})-6,6,11,11-tetrafluoro-2-methyl-4-oxo-3,13,19-triazatetracyclo[11.5.2.0^{5,7}.0^{16,20}]icosa-1(19),14,16(20),17-tetraen-14-yl]benzimidazole-5-carboxamide]
The IC50 of the first is 2.8-fold lower: 31 nM for the first, 88 nM for the second.

First: C[C@H]1NC(=O)[C@H]2[C@H](CCCC(F)(F)Cn3c(-c4nc5cc(C(=O)N[C@H]6CNCC[C@@H]6F)c(F)cc5n4C4CC4)cc4ccc1nc43)C2(F)F [Example 391, 1-cyclopropyl-6-fluoro-~{N}-[(3~{S},4~{S})-4-fluoro-3-piperidyl]-2-[(2~{R},5~{R},7~{S})-6,6,11,11-tetrafluoro-2-methyl-4-oxo-3,13,19-triazatetracyclo[11.5.2.0^{5,7}.0^{16,20}]icosa-1(19),14,16(20),17-tetraen-14-yl]benzimidazole-5-carboxamide]
Second: C[C@H]1NC(=O)[C@H]2[C@@H](CCCCCn3c(-c4nc5cc(C(=O)N[C@H]6CNCC[C@@H]6F)c(F)cc5n4C4CC4)cc4ccc1nc43)C2(F)F [Example 392, 1-cyclopropyl-2-[(2~{R},5~{R},7~{R})-6,6-difluoro-2-methyl-4-oxo-3,13,19-triazatetracyclo[11.5.2.0^{5,7}.0^{16,20}]icosa-1(19),14,16(20),17-tetraen-14-yl]-6-fluoro-~{N}-[(3~{S},4~{S})-4-fluoro-3-piperidyl]benzimidazole-5-carboxamide]
The IC50 of the first is 1.5-fold higher: 34 nM for the first, 22 nM for the second. The second is the more potent here.

Going from `C[C@H]1NC(=O)[C@@H]2[C@@H](CCCCCn3c(-c4nc5cc(C(=O)N[C@H]6CNCC[C@@H]6F)c(F)cc5n4C4CC4)cc4ccc1nc43)C2(F)F` [Example 393, 1-cyclopropyl-2-[(2~{R},5~{S},7~{R})-6,6-difluoro-2-methyl-4-oxo-3,13,19-triazatetracyclo[11.5.2.0^{5,7}.0^{16,20}]icosa-1(19),14,16(20),17-tetraen-14-yl]-6-fluoro-~{N}-[(3~{S},4~{S})-4-fluoro-3-piperidyl]benzimidazole-5-carboxamide] to `C[C@H]1NC(=O)[C@H]2[C@H](CCCCCn3c(-c4nc5cc(C(=O)N[C@H]6CNCC[C@@H]6F)c(F)cc5n4C4CC4)cc4ccc1nc43)C2(F)F` [Example 394, 1-cyclopropyl-2-[(2~{R},5~{R},7~{S})-6,6-difluoro-2-methyl-4-oxo-3,13,19-triazatetracyclo[11.5.2.0^{5,7}.0^{16,20}]icosa-1(19),14,16(20),17-tetraen-14-yl]-6-fluoro-~{N}-[(3~{S},4~{S})-4-fluoro-3-piperidyl]benzimidazole-5-carboxamide], the IC50 falls from 63 nM to 23 nM (2.7-fold).

Going from `Cc1cncc2c1C(=O)N[C@H](C)c1ccc3cc(-c4nc5cc(C(=O)N[C@H]6CNCC[C@@H]6F)c(F)cc5n4C4CC4)n(c3n1)CCCCC2` [Example 395, 1-cyclopropyl-2-[(2~{R})-2,6-dimethyl-4-oxo-3,8,16,22-tetrazatetracyclo[14.5.2.0^{5,10}.0^{19,23}]tricosa-1(22),5(10),6,8,17,19(23),20-heptaen-17-yl]-6-fluoro-~{N}-[(3~{S},4~{S})-4-fluoro-3-piperidyl]benzimidazole-5-carboxamide] to `COc1cc(C(=O)N2CC[C@@H](OC)[C@@H](N)C2)cc2nc(-c3cc4ccc5nc4n3CCCCCc3cccc(C(F)F)c3C(=O)N[C@@H]5C)n(C)c12` [Example 397, (2~{R})-17-[5-[(3~{S},4~{R})-3-amino-4-methoxy-piperidine-1-carbonyl]-7-methoxy-1-methyl-benzimidazol-2-yl]-6-(difluoromethyl)-2-methyl-3,16,22-triazatetracyclo[14.5.2.0^{5,10}.0^{19,23}] tricosa-1(22),5(10),6,8,17,19(23),20-heptaen-4-one], the IC50 rises from 29 nM to 91 nM (3.1-fold). The first is the more potent here.
